In ChEMBL document CHEMBL6078689, “Discovery of novel biaryl urea derivatives against IL-1β release with low toxicity based on NEK7 inhibitor” (Eur J Med Chem, 2025):
Calls of active or inactive are those of the source. No cut-off for these calls is given here.

How the values were obtained:
[1] = Cytotoxicity against C57BL/6 mouse BMDM cells assessed as cell viability at 0.1 uM incubated for 4 hrs by CCK-8 assay relative to control; type: toxicity, cell-based; conditions: bone marrow-derived macrophages (BMDM cells), read-out: Activity
BMDM [2] = test: Inhibition of NLRP3 inflammasome activation in LPS-induced C57BL/6 mouse BMDM cells assessed as reduction in IL-1beta release at 0.1 uM preincubated with LPS for 1 hrs followed by compound addition and measured after 2 hrs by ELISA relative to control; type: cell-based
[3] = Cytotoxicity against C57BL/6 mouse BMDM cells assessed as cell viability incubated for 4 hrs by CCK-8 assay; type: toxicity, cell-based; conditions: bone marrow-derived macrophages (BMDM cells)
[4] = Inhibition of NLRP3 inflammasome activation in LPS-induced C57BL/6 mouse BMDM cells assessed as reduction in IL-1beta release preincubated with LPS for 1 hrs followed by compound addition and measured after 2 hrs by ELISA; type: cell-based; conditions: C57BL/6, BMDM
[5] = Selectivity index, ratio of CC50 for C57BL/6 mouse BMDM cells to IC50 for Inhibition of NLRP3 inflammasome activation in LPS-induced C57BL/6 mouse BMDM cells assessed as reduction in IL-1beta release; type: toxicity, cell-based; conditions: bone marrow-derived macrophages (BMDM cells), read-out: Ratio CC50/IC50
[6] = target: NLRP3-NEK7 (Mus musculus) (UniProt Q8R4B8+Q9ES74); test: Inhibition of NLRP3/NEK7 protein-protein interaction in LPS-induced C57BL/6 mouse BMDM cells by co-immunoprecipitation based Western blot analysis; type: cell-based
BMDM [7] = test: Binding affinity to NEK7 in LPS-primed C57BL/6 mouse BMDM cells assessed as thermal stabilization preincubated with LPS for 1 hrs followed by compound addition and incubated for 2 hrs under 48 to 53 degreeC by CETSA; type: cell-based
[8] = target: Serine/threonine-protein kinase Nek7 (Homo sapiens, UniProt Q8TDX7); test: Inhibition of N-terminal GST-tagged full-length recombinant human NEK7 extracted from baculovirus infected in Sf9 cells preincubated for 20 mins followed by [32P]-ATP addition and measured after 2 hrs
Serine/threonine-protein kinase Nek7, sequence (Q8TDX7 whole entry): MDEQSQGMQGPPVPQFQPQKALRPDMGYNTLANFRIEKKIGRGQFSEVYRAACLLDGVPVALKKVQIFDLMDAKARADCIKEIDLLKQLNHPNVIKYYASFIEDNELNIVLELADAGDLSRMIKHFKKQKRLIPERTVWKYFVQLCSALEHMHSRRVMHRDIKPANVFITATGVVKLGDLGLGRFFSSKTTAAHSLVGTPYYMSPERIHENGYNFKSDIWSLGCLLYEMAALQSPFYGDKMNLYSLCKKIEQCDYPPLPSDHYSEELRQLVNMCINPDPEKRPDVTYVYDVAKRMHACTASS

NLRP3-NEK7 (Mus musculus), sequence (Q8R4B8 whole entry, looked up): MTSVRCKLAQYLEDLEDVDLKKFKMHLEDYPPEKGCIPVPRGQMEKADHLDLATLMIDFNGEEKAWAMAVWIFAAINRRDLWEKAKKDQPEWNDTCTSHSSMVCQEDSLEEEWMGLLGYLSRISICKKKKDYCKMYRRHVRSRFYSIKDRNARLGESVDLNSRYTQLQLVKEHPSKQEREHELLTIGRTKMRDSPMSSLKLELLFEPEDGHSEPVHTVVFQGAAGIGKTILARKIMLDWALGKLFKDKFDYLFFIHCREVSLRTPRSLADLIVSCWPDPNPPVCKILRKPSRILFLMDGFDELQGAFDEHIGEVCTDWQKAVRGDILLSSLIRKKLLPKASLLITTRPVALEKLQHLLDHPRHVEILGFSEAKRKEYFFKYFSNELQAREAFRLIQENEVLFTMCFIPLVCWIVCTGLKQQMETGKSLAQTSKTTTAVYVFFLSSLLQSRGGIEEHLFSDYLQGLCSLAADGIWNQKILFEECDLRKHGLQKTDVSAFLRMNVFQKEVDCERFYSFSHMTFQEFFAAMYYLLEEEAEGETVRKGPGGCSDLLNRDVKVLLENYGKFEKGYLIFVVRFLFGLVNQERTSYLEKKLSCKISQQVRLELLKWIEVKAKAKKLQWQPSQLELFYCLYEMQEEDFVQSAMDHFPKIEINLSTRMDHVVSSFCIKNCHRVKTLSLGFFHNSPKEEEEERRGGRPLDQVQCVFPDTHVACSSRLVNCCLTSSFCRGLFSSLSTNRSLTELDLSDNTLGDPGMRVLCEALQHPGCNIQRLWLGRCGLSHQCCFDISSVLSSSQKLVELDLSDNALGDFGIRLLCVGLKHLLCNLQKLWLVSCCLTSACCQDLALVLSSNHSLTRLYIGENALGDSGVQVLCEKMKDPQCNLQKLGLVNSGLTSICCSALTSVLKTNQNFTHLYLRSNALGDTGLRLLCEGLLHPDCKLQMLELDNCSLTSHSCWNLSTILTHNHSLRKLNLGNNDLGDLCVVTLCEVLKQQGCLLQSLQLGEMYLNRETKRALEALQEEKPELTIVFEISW
NLRP3-NEK7 (Mus musculus), sequence (Q9ES74 whole entry, looked up): as the sequence (Q8TDX7 whole entry) above, with P14T, A52S, E150D, M273I, V285I, T286A, S302T counted along it

Compound	viability at 4 h, 0.1 µM [1] [%]	inhibition (BMDM [2]) [%]	other results
CNc1ccc(-c2ccc(NC(=O)Nc3ccc(CN4CCN(C)CC4)c(C(F)(F)F)c3)c(F)c2)cn1	95.5	41.5	–
CC(=O)Nc1ccc(-c2ccc(NC(=O)Nc3cccc(C(F)(F)F)c3)c(F)c2)cn1	96.4	-7.98	–
CN1CCN(Cc2ccc(NC(=O)Nc3ccc(-c4ccc(N)nc4)cc3F)cc2C(F)(F)F)CC1	86	82.3	CC50 at 4 h [3]: 0.247 µM; IC50 [4]: 0.03 µM; selectivity ratio [5]: 8.26
CN1CCN(Cc2ccc(NC(=O)Nc3ccc(-c4ccnc(N)c4)cc3F)cc2C(F)(F)F)CC1	112	3.67	–
CN1CCN(Cc2ccc(NC(=O)Nc3ccc(-c4cccnc4N)cc3F)cc2C(F)(F)F)CC1	65	–	–
CN1CCN(Cc2ccc(NC(=O)Nc3ccc(-c4ccc(O)nc4)cc3F)cc2C(F)(F)F)CC1	106	–	–
CN1CCN(Cc2ccc(NC(=O)Nc3ccc(-c4nc(N)cc5ccccc45)cc3F)cc2C(F)(F)F)CC1	122	30.6	–
CC(=O)Nc1ccc(-c2ccc(C(=O)Nc3ccc(CN4CCN(C)CC4)c(C(F)(F)F)c3)c(F)c2)cn1	90.4	–	–
CN1CCN(Cc2ccc(NC(=O)Nc3ccc(-c4ccc(N)cn4)cc3F)cc2C(F)(F)F)CC1	104	–	–
CC(=O)Nc1ccc(-c2ccc(NC(=O)Nc3ccc(CN4CCN(C)CC4)cc3)c(F)c2)cn1	94.9	–	–
CN1CCN(Cc2ccc(NC(=O)Nc3ccc(-c4cnc5cccnn45)cc3F)cc2C(F)(F)F)CC1	91.4	-9.39	–
CN1CCN(Cc2ccc(NC(=O)Nc3ccc(-c4nc(N)c5ccccc5n4)cc3F)cc2C(F)(F)F)CC1	108	–	–
CC(=O)Nc1ccc(-c2ccc(NC(=O)Nc3ccc(CN4CCN(C)CC4)c(C(F)(F)F)c3)c(F)c2)cn1	98.3	90.3	CC50 at 4 h [3]: 3.84 µM; inhibition [6]: Active; IC50 [4]: 0.048 µM; selectivity ratio [5]: 80.3; Activity (BMDM [7]): Active; Compound Is Capable Of Binding To Nek7
CN1CCN(Cc2ccc(NC(=O)Nc3ccc(-c4ncc(N)cn4)cc3F)cc2C(F)(F)F)CC1	71.8	–	–
CN1CCN(Cc2ccc(NC(=O)Nc3ccc(-c4cncnc4N)cc3F)cc2C(F)(F)F)CC1	106	-1.08	–
CN1CCN(Cc2ccc(NC(=O)Nc3ccc(-c4ccnc(N)n4)cc3F)cc2C(F)(F)F)CC1	78	25.7	–
CN1CCN(Cc2ccc(NC(=O)Nc3ccc(-c4cccc(N)n4)cc3F)cc2C(F)(F)F)CC1	109	–	–
CN1CCN(Cc2ccc(NC(=O)Nc3ccc(-c4nccnc4N)cc3F)cc2C(F)(F)F)CC1	107	28.2	–
COc1ccc(-c2ccc(NC(=O)Nc3ccc(CN4CCN(C)CC4)c(C(F)(F)F)c3)c(F)c2)cn1	104	–	–
CN1CCN(Cc2ccc(NC(=O)Nc3ccc(-c4cnc(N)c5ccccc45)cc3F)cc2C(F)(F)F)CC1	108	-7.76	–
CC(C)(O)c1coc(S(=O)(=O)NC(=O)Nc2c3c(cc4c2CCC4)CCC3)c1	–	66.7	CC50 at 4 h [3]: > 10 µM; IC50 [4]: 0.085 µM; selectivity ratio [5]: > 118
CN1CCN(Cc2ccc(NC(=O)Nc3ccc(-c4cn(C5CC5)c5ncnc(N)c45)cc3F)cc2C(F)(F)F)CC1	17.2	–	IC50 [8]: < 0.1 µM
CN1CCN(Cc2ccc(NC(=O)Nc3ccc(-c4c(N)ncc5ccccc45)cc3F)cc2C(F)(F)F)CC1	61.1	–	–
CN1CCN(Cc2ccc(NC(=O)Nc3ccc(-c4cc5ccccc5nc4N)cc3F)cc2C(F)(F)F)CC1	86	–	–
CC(=O)Nc1ccc(-c2ccc(NC(=O)c3ccc(CN4CCN(C)CC4)c(C(F)(F)F)c3)c(F)c2)cn1	92.6	0	–
